Data: patent publication US20220040263A1, “COMPANION DIAGNOSTIC FOR COMBINATION LENALIDOMIDE AND ERYTHROPOIETIN TREATMENT” (H. Lee Moffitt Cancer Center and Research Institute, Inc., priority 2016, published 2022)
“Also recorded” adds a separate entry of the source.

What was measured:
[1] = system: Jak2 and STAT5 phosphorylation in UT7 cells; test: Jak2 and STAT5 phosphorylation in UT7 cells with JAK or Src kinase inhibitors (Western); format: cell-based
Method: 10×10^7 UT7 cells were serum starved then treated with SKI 606 or AG490 for 30 minutes, CC5013 for 2 hours, and stimulated with EPO (1 U/ml) for 10 minutes at 37° C. Cells were lysed and […] run on a 4-15% Gradient gel (Bio-rad). Antibodies included p-STAT5 (Upstate, 1:1000 in 5% TBS/milk), total STAT5 (Cell Signaling, 1:10000 in 5% TBS/milk), and p-Jak2 (Santa Cruz, 1:500 in 5% TBS/milk). Blots were developed with an ECL detection kit (Amersham).
To further evaluate the mechanism by which lenalidomide enhances the EPO-R signal, STAT5 activation was assessed in response to EPO+lenalidomide treatment using selective pharmacologic inhibitors of JAK (AG490) or Src ([…]) kinases [FIG. 4].

rhu-CD45 = biological target: T1, rhu-CD45 (Homo sapiens, UniProt P08575); test: BIOMOL Green CD45 Tyrosine Phosphatase Assay; format: biochemical; settings: 1 μM, recombinant CD45, substrate pp60c-Src
T1 construct: purchased Calbiochem
T1 sequence (P08575 26-1306): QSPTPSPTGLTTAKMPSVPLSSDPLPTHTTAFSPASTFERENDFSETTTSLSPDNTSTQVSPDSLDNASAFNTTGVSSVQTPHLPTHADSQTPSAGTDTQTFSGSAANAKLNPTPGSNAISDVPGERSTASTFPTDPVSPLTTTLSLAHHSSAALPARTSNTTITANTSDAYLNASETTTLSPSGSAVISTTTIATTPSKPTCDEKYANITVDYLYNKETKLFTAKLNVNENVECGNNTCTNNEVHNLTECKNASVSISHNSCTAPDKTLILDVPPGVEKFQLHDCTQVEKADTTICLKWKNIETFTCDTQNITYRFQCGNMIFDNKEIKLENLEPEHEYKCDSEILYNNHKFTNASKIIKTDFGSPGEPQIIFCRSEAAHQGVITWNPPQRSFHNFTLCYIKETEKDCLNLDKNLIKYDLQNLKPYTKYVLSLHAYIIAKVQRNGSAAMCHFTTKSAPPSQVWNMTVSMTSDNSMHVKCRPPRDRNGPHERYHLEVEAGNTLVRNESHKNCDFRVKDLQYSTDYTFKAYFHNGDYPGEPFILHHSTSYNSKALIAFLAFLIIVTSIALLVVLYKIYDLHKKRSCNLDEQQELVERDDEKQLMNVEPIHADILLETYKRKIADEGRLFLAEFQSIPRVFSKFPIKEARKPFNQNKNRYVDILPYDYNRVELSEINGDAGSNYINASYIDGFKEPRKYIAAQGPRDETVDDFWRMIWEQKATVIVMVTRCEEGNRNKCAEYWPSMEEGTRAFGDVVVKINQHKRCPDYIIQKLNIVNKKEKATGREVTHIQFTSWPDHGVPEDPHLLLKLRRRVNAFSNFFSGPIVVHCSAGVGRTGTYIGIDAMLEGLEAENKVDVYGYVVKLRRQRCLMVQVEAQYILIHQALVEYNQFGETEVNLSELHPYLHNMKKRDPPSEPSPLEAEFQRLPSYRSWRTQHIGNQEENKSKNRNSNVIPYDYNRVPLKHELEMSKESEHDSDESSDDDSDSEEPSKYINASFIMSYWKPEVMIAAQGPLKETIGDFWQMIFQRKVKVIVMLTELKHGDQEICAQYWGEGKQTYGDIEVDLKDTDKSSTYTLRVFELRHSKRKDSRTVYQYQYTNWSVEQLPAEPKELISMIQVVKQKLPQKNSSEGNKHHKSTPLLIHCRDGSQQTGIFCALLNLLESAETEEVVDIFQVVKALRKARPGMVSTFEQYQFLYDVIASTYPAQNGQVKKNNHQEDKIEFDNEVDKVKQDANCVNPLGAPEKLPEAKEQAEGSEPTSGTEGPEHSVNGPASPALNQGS
Method: CD45-specific PTP activity was assayed as outlined in the BIOMOL Green™ CD45 Tyrosine Phosphatase Assay Kit. Briefly, 75 U of rhu-CD45 (Calbiochem) was incubated for 1H at 37° C. with the indicated inhibitors (1 μM CC5013 and thalidomide, 100 μM Na Orthovanadate, and 50 μM RWJ-60475 (CD45-specific PTP inhibitor) in 1× assay buffer. The substrate pp60c-Src was added at 200 μM and incubated for 1H at 37° C. Samples were read on a plate reader at 620 nm. Percent PTP activity was calculated according to the equation (OD of test sample/OD of control)×100.
This notion is in agreement with findings that lenalidomide suppressed cytosolic release of Csk that is dependent upon dephosphorylation of the Cbp/PAG Csk docking site (Tyr314) by CD45. To determine if lenalidomide inhibits CD45 phosphatase, recombinant CD45 PTP inhibition by lenalidomide and thalidomide was compared to the pan-PTP inhibitor sodium orthovanadate and the CD45-selective inhibitor, RWJ-60475 using the Biomol CD45 phosphatase assay. […] [FIG. 7].

AML-EH5q cells = test: Apoptosis by Annexin-V/PI flow cytometry in AML-EH5q cells; format: cell-based; settings: AML-EH5q (5q-deleted) cells, 24 hours
Method: (§1) AML-EH5q (FIG. 8A) and U937 (FIG. 8B) cells were exposed to lenalidomide, thalidomide or vehicle at the concentrations indicated for 24 hours in IMDM and 20% FBS and apoptosis assessed by flow cytometry using Annexin-V/PI staining. Briefly, cells are incubated for 20 minutes at room temperature in 50 mM HEPES (pH 7.4) and 150 mM NaCl containing 2 mM calcium chloride with a mixture of 1 μg/mLAnnexin V-FITC (Boehringer Mannhein, Mannhein, Germany) and 2.5 μg/mL propidium iodide (PI; Sigma-Aldrich) before analysis.
(§2) The hematologic effects of lenalidomide could derive from dual effects that are karyotype-dependent, i.e., (1) the potentiation of erythropoiesis in non-del5q erythroid precursors, and (2) selective suppression of del5q clones. To confirm that lenalidomide is selectively cytotoxic to del-5q clones, an AML cell line transformed from an MDS patient with isolated 5q31 deletion was cultivated and the cell line successfully maintained in suspension culture with recombinant myeloid growth factor supplementation. This cell line [designated AML-EH5q] is an AML cell line that harbors the isolated 5q-deletion. […] To evaluate the selectivity of lenalidomide cytotoxic for del5q clones, apoptotic response to lenalidomide and thalidomide was compared in AML-EH5q and U937 (non-del5q) cells by flow cytometry. […] Viability was unaffected at all concentrations for both agents in U937 cells.

U937 (non-del5q) cells = test: Apoptosis by Annexin-V/PI flow cytometry in U937 cells; format: cell-based; settings: 24 hours, all concentrations
Method: as §1, §2

Row | SMILES | effect of kinase inhibitor on lenalidomide's potentiation of EPO-induced STAT5 phosphorylation [1] | effect of kinase inhibitor on lenalidomide-augmented EPO-induced Jak2-phosphorylation ([1]; inhibitor 30 minutes, CC5013 2 hours, EPO 1 U/ml 10 minutes) | inhibition of CD45 PTP activity (rhu-CD45) | induction of programmed cell death (apoptosis) (AML-EH5q cells) | viability / apoptosis (U937 (non-del5q) cells)
1 | N#C/C(=C/c1ccc(O)c(O)c1)C(=O)NCc1ccccc1 [AG490] | suppress | abrogated | – | – | –
2 | COc1cc(Nc2c(C#N)cnc3cc(OCCCN4CCN(C)CC4)c(OC)cc23)c(Cl)cc1Cl [SKI-606] | suppress | – | – | – | –
3 | O=C1CCC(N2C(=O)c3ccccc3C2=O)C(=O)N1 (stereo not drawn) [thalidomide] | – | – | minimal inhibition | comparatively inactive | comparatively inactive; also recorded: unaffected
